In patent US20110039819A1, “SUBSTITUTED PHENOXYBENZAMIDES” (priority 2008, published 2011) one finds IC50 data, which are given here for 30 molecules.

The target of the first experiment is T1, MEK1 (Homo sapiens, UniProt Q02750).
T1 construct: purchased Millipore 14-420 (GST-MEK1); 14-703 (Cot1); host or cells: Cot1: insect cells (SF21)
T1 sequence (Q02750 whole entry): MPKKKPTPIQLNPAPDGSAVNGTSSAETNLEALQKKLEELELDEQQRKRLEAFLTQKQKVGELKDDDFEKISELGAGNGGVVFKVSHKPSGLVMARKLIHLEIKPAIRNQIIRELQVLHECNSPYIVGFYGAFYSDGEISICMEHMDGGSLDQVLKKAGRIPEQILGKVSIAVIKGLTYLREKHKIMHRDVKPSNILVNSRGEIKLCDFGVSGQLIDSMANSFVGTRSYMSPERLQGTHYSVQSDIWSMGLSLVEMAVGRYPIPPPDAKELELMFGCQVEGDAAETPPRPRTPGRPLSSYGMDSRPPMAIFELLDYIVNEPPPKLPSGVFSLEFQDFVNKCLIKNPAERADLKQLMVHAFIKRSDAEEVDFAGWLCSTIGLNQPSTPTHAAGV
In words: MEK1 activation kinase assay (Assay 2, HTRF; Cot1 phosphorylates GST-MEK1). In kind it is biochemical. The settings on record: IC50 in MEK1 activation kinase assay, representative example compounds. The protocol: MEK1 Activation Kinase Assay
The kinase Cot1 activates MEK1 by phosphorylating its activation loop. The inhibitory activity of compounds of the present invention on this activation of MEK1 was quantified employing the HTRF assay described in the following paragraphs.
As substrate for the kinase reaction the unactive C-terminally His6-tagged GST-MEK1 fusion protein (Millipore cat. no 14-420) was used.
Then the kinase reaction was started by the addition of 2 μl of a solution of Cot1 in assay buffer and the resulting mixture was incubated for a reaction time of 20 min at 22° C. The concentration of Cot1 in the assay was adjusted depending of the activity of the enzyme lot and was chosen appropriate to have the assay in the linear range, typical enzyme concentrations were in the range of about 2 ng/μl (final conc. in the 5 μl assay volume).
The resulting mixture was incubated 2 h at 22° C. to allow the binding of the phosphorylated GST-MEK1 to the anti-GST-XL665 and the Eu-cryptate labelled anti-phospho-MEK 1/2 antibody. Subsequently the amount of Ser217/Ser221-phosphorylated substrate was evaluated by measurement of the resonance energy transfer from the Eu-Cryptate-labelled anti-phospho-MEK antibody to the anti-GST-XL665.
A general note: In TR-FRET formats the signal depends on donor and acceptor labels being close together.
In turn, `CNS(=O)(=O)Nc1cccc(Oc2cc(F)cc(Nc3ccc(I)cc3F)c2C(N)=O)c1` [Example 5.41, 2-[3-[[(methylamino)sulfonyl]amino]phenoxy]-4-fluoro-6-[(2-fluoro-4-iodophenyl)amino]-benzamide] came in with an IC50 below 1000 nM.

The same experiment, now with this note: mean values from 2 or more measurements; read-out: Assay 2 IC50 values (nanomolar) (MEK1 activation kinase assay) (values are mean values from 2 or more measurements).
Consider `NC(=O)c1c(Nc2ccc(I)cc2F)cc(F)cc1Oc1cccc(NS(N)(=O)=O)c1` [Example 5.7, 2-[3-[[(amino)sulfonyl]amino]phenoxy]-4-fluoro-6-[(2-fluoro-4-iodophenyl)amino]-benzamide], for which the 50% inhibitory concentration (IC50) is 18.5 nM. Still for that read-out and setting: with `NC(=O)c1c(Nc2ccc(I)cc2F)cc(F)cc1Oc1cccc(NS(=O)(=O)N2CCOCC2)c1` [Example 5.24, 4-Fluoro-2-(2-fluoro-4-iodo-phenylamino)-6-[3-(morpholine-4-sulfonylamino)-phenoxy]-benzamide] the figure was 25.9 nM; with `CN(C)C(=O)N1CCN(CCOc2cc(F)cc(Nc3ccc(I)cc3F)c2C(N)=O)CC1` [Example 5.30, 4-{2-[2-Carbamoyl-5-fluoro-3-(2-fluoro-4-iodo-phenylamino)-phenoxy]-ethyl}-piperazine-1-carboxylic acid dimethylamide], 138 nM; with `CS(=O)(=O)N1CCN(CCOc2cc(F)cc(Nc3ccc(I)cc3F)c2C(N)=O)CC1` [Example 5.31, 4-Fluoro-2-(2-fluoro-4-iodo-phenylamino)-6-[2-(4-methanesulfonyl-piperazin-1-yl)-ethoxy]-benzamide], 153 nM. Turning to `CS(=O)(=O)N1CCC[C@@H]1COc1cc(F)cc(Nc2ccc(I)cc2F)c1C(N)=O` [Example 5.32, 4-Fluoro-2-(2-fluoro-4-iodo-phenylamino)-6-((R)-1-methanesulfonyl-pyrrolidin-2-ylmethoxy)-benzamide], the IC50 stood at 35.4 nM. The same measure, in the same setting: with `CCS(=O)(=O)N1CCC[C@@H]1COc1cc(F)cc(Nc2ccc(I)cc2F)c1C(N)=O` [Example 5.33, 2-((R)-1-Ethanesulfonyl-pyrrolidin-2-ylmethoxy)-4-fluoro-6-(2-fluoro-4-iodo-phenylamino)-benzamide] the figure was 91.6 nM; with `CCS(=O)(=O)N1CCC[C@H]1COc1cc(F)cc(Nc2ccc(I)cc2F)c1C(N)=O` [Example 5.34, 2-((S)-1-Ethanesulfonyl-pyrrolidin-2-ylmethoxy)-4-fluoro-6-(2-fluoro-4-iodo-phenylamino)-benzamide], 96.5 nM; with `NC(=O)c1c(Nc2ccc(I)cc2F)cc(F)cc1Oc1cccc(NS(=O)(=O)C2CC2)c1` [Example 5.36, 2-(3- Cyclopropanesulfonylamino-phenoxy)-4-fluoro-6-(2-fluoro-4-iodo-phenylamino)-benzamide], 14.5 nM. Same read-out and setting: the figure for `NC(=O)c1c(Nc2ccc(I)cc2F)cc(F)cc1Oc1cccc(NS(=O)(=O)C2CCCC2)c1` [Example 5.37, 2-(3- Cyclopentanesulfonylamino-phenoxy)-4-fluoro-6-(2-fluoro-4-iodo-phenylamino)-benzamide] is 20.4 nM; for `CCN(CC)S(=O)(=O)Nc1cccc(Oc2cc(F)cc(Nc3ccc(I)cc3F)c2C(N)=O)c1` [Example 5.38, 2-(3-diethylsulfamoyl-amino-phenoxy)-4-fluoro-6-(2-fluoro-4-iodo-phenylamino)-benzamide] it is 55.3 nM. Regarding `CC(=O)N1CCC[C@@H]1COc1cc(F)cc(Nc2ccc(I)cc2F)c1C(N)=O` [Example 5.39, 2-((R)-1-Acetyl-pyrrolidin-2-ylmethoxy)-4-fluoro-6-(2-fluoro-4-iodo-phenylamino)-benzamide], the concentration for half-maximal inhibition (IC50) was determined as 438 nM.

For the molecule `CNS(=O)(=O)Nc1cccc(Oc2cc(F)cc(Nc3ccc(I)cc3F)c2C(N)=O)c1` [Example 5.41, 2-[3-[[(methylamino)sulfonyl]amino]phenoxy]-4-fluoro-6-[(2-fluoro-4-iodophenyl)amino]-benzamide], the half-maximal inhibitory concentration (IC50) worked out at 22.2 nM. In the case of `NC(=O)c1c(Nc2ccc(I)cc2F)cc(F)cc1Oc1cccc(NS(=O)(=O)C2CCC2)c1` [Example 5.48, 2-(3-Cyclobutanesulfonyl-amino-phenoxy)-4-fluoro-6-(2-fluoro-4-iodo-phenylamino)-benzamide], the half-maximal inhibitory concentration (IC50) stood at 16.9 nM. Take `NC(=O)c1c(Nc2ccc(I)cc2F)cc(F)cc1Oc1cccc(NS(=O)(=O)c2c[nH]cn2)c1` [Example 5.49, 4-Fluoro-2-(2-fluoro-4-iodo-phenylamino)-6-[3-(1H-imidazole-4-sulfonylamino)-phenoxy]-benzamide]: the IC50 was determined as 15.7 nM.

As to `CN(C)S(=O)(=O)NCc1cccc(Oc2cc(F)cc(Nc3ccc(I)cc3F)c2C(N)=O)c1` [Example 5.67, 6-[3-(dimethyl-aminosulfonylamino-methyl)-phenoxy]-4-fluoro-2-(2-fluoro-4-iodo-phenylamino)-6-benzamide], the IC50 worked out at 63.4 nM.

For `CS(=O)(=O)NCc1cccc(Oc2cc(F)cc(Nc3ccc(I)cc3F)c2C(N)=O)c1` [Example 5.68, 4-Fluoro-2-(2-fluoro-4-iodo-phenylamino)-6-[3-(methane-sulfonylamino-methyl)-phenoxy]-benzamide], the IC50 was determined as 43.2 nM.

As for `CC(=O)NCc1cccc(Oc2cc(F)cc(Nc3ccc(I)cc3F)c2C(N)=O)c1` [Example 5.69, 2-[3-(Acetylamino-methyl)-phenoxy]-4-fluoro-6-(2-fluoro-4-iodo-phenylamino)-benzamide], the IC50 worked out at 18.3 nM. Same read-out and setting: with `NC(=O)c1c(Nc2ccc(I)cc2F)cc(F)cc1Oc1cccc(NC(=O)c2ccsc2)c1` [Example 5.75, Thiophene-3-carboxylic acid {3-[2-carbamoyl-5-fluoro-3-(2-fluoro-4-iodo-phenylamino)-phenoxy]-phenyl}-amide] the figure was 103 nM; with `NC(=O)c1c(Nc2ccc(I)cc2F)cc(F)cc1Oc1cccc(NC(=O)c2csnn2)c1` [Example 5.76, [1,2,3]Thiadiazole-4-carboxylic acid {3-[2-carbamoyl-5-fluoro-3-(2-fluoro-4-iodo-phenylamino)-phenoxy]-phenyl}-amide], 70.3 nM; with `NC(=O)c1c(Nc2ccc(I)cc2F)cc(F)cc1Oc1cccc(NC(=O)c2ccoc2)c1` [Example 5.77, Furan-3-carboxylic acid {3-[2-carbamoyl-5-fluoro-3-(2-fluoro-4-iodo-phenylamino)-phenoxy]-phenyl}-amide], 127 nM.

For `NC(=O)c1c(Nc2ccc(I)cc2F)cc(F)cc1Oc1cccc(NC(=O)c2ccno2)c1` [Example 5.78, Isoxazole-5-carboxylic acid {3-[2-carbamoyl-5-fluoro-3-(2-fluoro-4-iodo-phenylamino)-phenoxy]-phenyl}-amide], the 50% inhibitory concentration (IC50) was 86.2 nM. With `NC(=O)c1c(Nc2ccc(I)cc2F)cc(F)cc1Oc1cccc(NC(=O)c2cn[nH]c2)c1` [Example 5.79, 1H-Pyrazole-4-carboxylic acid {3-[2-carbamoyl-5-fluoro-3-(2-fluoro-4-iodo-phenylamino)-phenoxy]-phenyl}-amide], the 50% inhibitory concentration (IC50) came to 77.8 nM.

As to `NC(=O)c1c(Nc2ccc(I)cc2F)cc(F)cc1Oc1cccc(NC(=O)C2CCC2)c1` [Example 5.80, 2-[3-(Cyclo-butanecarbonyl-amino)-phenoxy]-4-fluoro-6-(2-fluoro-4-iodo-phenylamino)-benzamide], the 50% inhibitory concentration (IC50) stood at 137 nM. On the same count and under the same terms, the figure for `NC(=O)c1c(Nc2ccc(I)cc2F)cc(F)cc1Oc1cccc(NC(=O)c2cc[nH]n2)c1` [Example 5.81, 1H-Pyrazole-3-carboxylic acid {3-[2-carbamoyl-5-fluoro-3-(2-fluoro-4-iodo-phenylamino)-phenoxy]-phenyl}-amide] is 96.4 nM. Still for that read-out and setting: the figure for `Cn1cncc1C(=O)Nc1cccc(Oc2cc(F)cc(Nc3ccc(I)cc3F)c2C(N)=O)c1` [Example 5.82, 3-Methyl-3H-imidazole-4-carboxylic acid {3-[2-carbamoyl-5-fluoro-3-(2-fluoro-4-iodo-phenylamino)-phenoxy]-phenyl}-amide] is 49.9 nM; for `Cc1nocc1C(=O)Nc1cccc(Oc2cc(F)cc(Nc3ccc(I)cc3F)c2C(N)=O)c1` [Example 5.83, 3-Methyl-isoxazole-4-carboxylic acid {3-[2-carbamoyl-5-fluoro-3-(2-fluoro-4-iodo-phenylamino)-phenoxy]-phenyl}-amide] it is 143 nM; for `NC(=O)c1c(Nc2ccc(I)cc2F)cc(F)cc1Oc1cccc(NC(=O)c2ccon2)c1` [Example 5.84, Isoxazole-3-carboxylic acid {3-[2-carbamoyl-5-fluoro-3-(2-fluoro-4-iodo-phenylamino)-phenoxy]-phenyl}-amide] it is 75.4 nM.

As to `NC(=O)c1c(Nc2ccc(I)cc2F)cc(F)cc1Oc1cncc(NS(=O)(=O)c2c[nH]cn2)c1` [Example 5.93, 4-Fluoro-2-(2-fluoro-4-iodo-phenylamino)-6-[5-(1H-imidazole-4-sulfonylamino)-pyridin-3-yloxy]-benzamide], the 50% inhibitory concentration (IC50) worked out at 86 nM. Regarding `NC(=O)c1c(Nc2ccc(I)cc2F)cc(F)cc1Oc1cccc(NS(=O)(=O)NCC(F)(F)F)c1` [Example 5.94, 4-fluoro-2-[(2-fluoro-4-iodophenyl)amino]-6-(3-{[(2,2,2-trifluoroethyl)-sulfamoyl]amino}phenoxy)benzamide], the IC50 worked out at 55.5 nM. Same read-out and setting: the figure for `COCCS(=O)(=O)Nc1cccc(Oc2cc(F)cc(Nc3ccc(I)cc3F)c2C(N)=O)c1` [Example 5.95, 4-fluoro-2-[(2-fluoro-4-iodophenyl)amino]-6-(3-{[(2-methoxyethyl)sulfonyl]amino}phenoxy)benzamide] is 25.1 nM.

The experiment is the same for the next values; noted with them: representative example compounds; read-out: IC50 in MEK1 activation kinase assay.
`NC(=O)c1c(Nc2ccc(I)cc2F)cc(F)cc1Oc1cccc(NS(=O)(=O)N2CCOCC2)c1` [Example 5.24, 4-Fluoro-2-(2-fluoro-4-iodo-phenylamino)-6-[3-(morpholine-4-sulfonylamino)-phenoxy]-benzamide]: the 50% inhibitory concentration (IC50) is below 1000 nM.

On to `NC(=O)c1c(Nc2ccc(I)cc2F)cc(F)cc1Oc1cccc(NS(=O)(=O)C2CCC2)c1` [Example 5.48, 2-(3-Cyclobutanesulfonyl-amino-phenoxy)-4-fluoro-6-(2-fluoro-4-iodo-phenylamino)-benzamide], for which the half-inhibitory concentration (IC50) is below 1000 nM. As for `NC(=O)c1c(Nc2ccc(I)cc2F)cc(F)cc1Oc1cccc(NS(=O)(=O)c2c[nH]cn2)c1` [Example 5.49, 4-Fluoro-2-(2-fluoro-4-iodo-phenylamino)-6-[3-(1H-imidazole-4-sulfonylamino)-phenoxy]-benzamide], the half-inhibitory concentration (IC50) is below 1000 nM.

The IC50 is the point on the concentration scale where inhibition reaches its midpoint.
